The results in this text go back to ChEMBL document CHEMBL5247636, “Synthesis and antineoplastic activity of ethylene glycol phenyl aminoethyl ether derivatives as FOXM1 inhibitors” (Eur J Med Chem, 2022).

Series [1] concerns SK-OV-3. Description: cells. The note with it: Homo sapiens.
Description: Antiproliferative activity against human SK-OV-3 cells assessed as inhibition of cell growth measured after 22 to 70 hrs by CCK-8 assay
Series [2] deals with HCT-116. Briefly: cells. Conditions: Homo sapiens.
Description: Antiproliferative activity against human HCT-116 cells assessed as inhibition of cell growth measured after 22 to 70 hrs by CCK-8 assay
Series [3] has as its system SK-OV-3. Description: Down regulation of PLK1 expression in human SK-OV-3 cells by Western blotting analysis. In kind it is functional, cell-based. Conditions: dose 0.1-10 µg/ml. (Immunoblotting shows a protein as a band on a membrane.)
In series [4] the test system is HepG2. Briefly: cells. The note with it: Homo sapiens.
Description: Antiproliferative activity against human HepG2 cells assessed as inhibition of cell growth measured after 22 to 70 hrs by CCK-8 assay
In series [5] the test system is SK-OV-3. Briefly: Down regulation of CDC25B expression in human SK-OV-3 cells by Western blotting analysis. In kind it is functional, cell-based. The note with it: dose 0.1-10 µg/ml.
In series [6] the test system is SK-OV-3. Description: cells. The note with it: Homo sapiens, SK-OV-3, 24 h.
Description: Cytotoxicity against human SK-OV-3 cells expressing low FOXM1 assessed as inhibition of cell growth measured after 24 hrs by CCK-8 assay
A short description of series [7]: Cytotoxicity against human FTE-187 cells assessed as inhibition of cell growth upto 50 uM measured after 24 to 48 hrs by CCK-8 assay. In kind it is toxicity, cell-based. Conditions: fte-187, 50 µM, time 24-48 hrs. (In general: Tetrazolium dyes change colour on reduction, which living cells bring about.)
Series [8] relates to SK-OV-3. Briefly: Cytotoxicity against human SK-OV-3 cells assessed as inhibition of cell growth measured after 24 hrs by CCK-8 assay. It is filed as toxicity, cell-based. The note with it: sk-ov-3, 24 h.
Series [9] concerns A2780. Description: Cytotoxicity against human A2780 cells assessed as inhibition of cell growth measured after 24 hrs by CCK-8 assay. It is filed as toxicity, cell-based. Conditions: a2780, 24 h.

In the case of `O=C(O)c1cccc(COc2ccc(OCCOCCNC3CCCC3)cc2)c1`, the IC50 (as a rule, the concentration needed to halve the response being measured) in series [1] was over 100 µM.
For the molecule `Clc1ccc(COc2ccc(OCCOCCNC3CCCCC3)cc2)cc1`, the IC50 in series [2] is 2.69 µM; in series [1], 2.65 µM; in [4], 15.1 µM; in series [6], 65.4 µM. The Activity result is “Dose-Dependent Effect” in series [3]; “Dose-Dependent Effect” in series [5]; “Non-Toxic” in [7]; “Toxic” in series [8]; “Toxic” in series [9].
In series [1], `c1ccc(COc2ccc(OCCOCCNc3ccncc3)cc2)cc1` gave an IC50 of 20.6 µM.
The same measure, in the same setting: the same measure for `Clc1ccc(COc2ccc(OCCOCCNC3CCCC3)cc2)cc1`: 7.67 µM; for `c1ccc(COc2ccc(OCCOCCNC3CCOC3)cc2)cc1` (stereo not given): 48 µM; for `O=Cc1ccc(COc2ccc(OCCOCCNC3CCCC3)cc2)cc1`: 45 µM.
For the molecule `O=[N+]([O-])c1ccccc1COc1ccc(OCCOCCNC2CCCCC2)cc1`, the IC50 in series [2] stood at 11.1 µM; in series [1], 2.88 µM; in [4] it was 25.5 µM.
For the molecule `Nc1c(C(=O)Nc2ccc(F)cc2)sc2nc(-c3cccs3)cc(C(F)(F)F)c12`, the IC50 is 86.1 µM in series [2], 51.4 µM in series [1] and 70.5 µM in series [4].
In turn, `c1ccc(COc2ccc(OCCOCCNC3CCCCCC3)cc2)cc1` yielded an IC50 in [1] of 7.46 µM.
In the case of `c1ncn(-c2ccc(OCCOCCNC3CCCC3)cc2)n1`, the IC50 in series [1] was over 100 µM.
`Nc1ccccc1COc1ccc(OCCOCCNC2CCCC2)cc1`: in series [1], the IC50 amounted to 14 µM.
`COc1cc(OCCOCCNC2CCCC2)ccc1OCc1ccccc1` displayed an IC50 in series [1] of 44.6 µM.
For the molecule `c1cc2c(cc1OCCOCCNC1CCCC1)CCCC2`, the IC50 in series [1] came out at 31.9 µM.
On the same count and under the same terms, under `O=[N+]([O-])c1ccc(COc2ccc(OCCOCCNC3CCCC3)cc2)cc1` stands 20.3 µM; under `COc1ccc(COc2ccc(OCCOCCNC3CCCC3)cc2)cc1`, 15.7 µM; under `COC(=O)c1cccc(COc2ccc(OCCOCCNC3CCCC3)cc2)c1`, 45.5 µM.
As for `c1ccc(COc2ccc(OCCOCCOC3CCCC3)cc2)cc1`, in series [1], the IC50 was over 100 µM.
`COC(=O)c1ccc(COc2ccc(OCCOCCNC3CCCCC3)cc2)cc1`: the values for the IC50 in series [2], in series [1] and in series [4] were 5.3 µM, 6.22 µM and 30.3 µM, respectively.
As to `OCCOCCOCCOc1ccc(OCc2ccccc2)cc1`, the IC50 in series [1] turned out to be 59.4 µM.
`COC(=O)c1ccccc1COc1ccc(OCCOCCNC2CCCC2)cc1`: in [1], the IC50 is over 100 µM.
Molecule `O=C(O)c1ccc(COc2ccc(OCCOCCNC3CCCC3)cc2)cc1` had an IC50 in series [1] of over 100 µM.
Consider `c1ccc(COc2ccc(OCCOCCNC3CCCC3)cc2)cc1`, for which the IC50 stood at 12.9 µM in series [2], 24.8 µM in [1] and 25.4 µM in series [4].
As to `COc1ccc(OCCOCCNC2CCCC2)cc1`, half-maximal inhibition in [1] (IC50) was put at 99.1 µM.
For `c1ccc(COc2ccc(COc3ccc(OCCOCCNC4CCCCC4)cc3)cc2)cc1`, the IC50 in series [2] was 4.35 µM; in series [1], 8.08 µM; in [4] it was 18.1 µM.
As to `Nc1cccc(COc2ccc(OCCOCCNC3CCCC3)cc2)c1`, the IC50 in [1] was determined as 10.8 µM.
With `c1ccc(COc2ccc(OCCOCCNC3CCC3)cc2)cc1`, the midpoint of inhibition in series [1], the IC50, lay at 25 µM.
Consider `O=C(O)c1ccccc1COc1ccc(OCCOCCNC2CCCC2)cc1`, for which the IC50 in series [1] is over 100 µM.
In [1], `CN(C)CCOCCOc1ccc(OCc2ccccc2)cc1` came in with an IC50 of 11.9 µM.
Regarding `c1ccc(COc2ccccc2OCCOCCNC2CCCC2)cc1`, the IC50 in [1] was found to be 40.7 µM.
In the case of `c1ccc(COc2ccc(OCCOCCNC3CCCCC3)cc2)cc1`, the IC50 in [1] was 7.37 µM.
On to `O=[N+]([O-])c1cccc(COc2ccc(OCCOCCNC3CCCC3)cc2)c1`, for which the IC50 in [1] worked out at 15.4 µM.
Same read-out and setting: the same measure for `CCOc1ccc(OCCOCCNC2CCCC2)cc1`: 90.5 µM; for `O=[N+]([O-])c1ccccc1COc1ccc(OCCOCCNC2CCCC2)cc1`: 5.37 µM.
In turn, `Cc1ccc(COc2ccc(OCCOCCNC3CCCC3)cc2)cc1` returned an IC50 in series [1] of 17.2 µM.
For the molecule `c1ccc(COc2ccc(COc3ccc(OCCOCCNC4CCCC4)cc3)cc2)cc1`, the midpoint of inhibition in series [1], the IC50, lay at 10 µM.
For `CC(C)(C)OC(=O)n1ccc(NCCOCCOc2ccc(OCc3ccccc3)cc2)c1`, in [1], inhibition was half-maximal at 13 µM (IC50).
For the molecule `Nc1ccc(COc2ccc(OCCOCCNC3CCCC3)cc2)cc1`, in [1], the IC50 turned out to be 31.7 µM.
The same measure, in the same setting: under `c1ccc2cc(OCCOCCNC3CCCC3)ccc2c1` stands 40.6 µM; under `COC(=O)c1ccc(COc2ccc(OCCOCCNC3CCCC3)cc2)cc1`, 6.99 µM.
On the same count and under the same terms, the same measure for `c1ccc(COc2ccc(OCCOCCNC3CC3)cc2)cc1`: 47.2 µM; for `c1ccc(COc2ccc(OCCOCCNc3ccccc3)cc2)cc1`: over 100 µM; for `c1ccc(COc2ccc(OCCOCCNc3cc[nH]c3)cc2)cc1`: 11.3 µM.
